The target in this experiment is T1, recombinant human caspase-2 (cleavage of tau at D314) (Homo sapiens, UniProt P42575).
T1 construct: human caspase-2 p19 and p12 subunits were cloned as two separate open reading frames in the pCOLADuet-1 vector; made in house; host or cells: E. coli BL21(DE3)
T1 sequence (P42575 170-325 limits assumed): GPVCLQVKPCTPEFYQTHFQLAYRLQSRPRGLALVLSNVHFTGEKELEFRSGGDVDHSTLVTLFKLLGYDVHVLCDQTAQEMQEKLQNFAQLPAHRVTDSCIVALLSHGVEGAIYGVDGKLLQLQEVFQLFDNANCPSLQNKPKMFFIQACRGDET
T1 sequence (P42575 348-452 limits assumed): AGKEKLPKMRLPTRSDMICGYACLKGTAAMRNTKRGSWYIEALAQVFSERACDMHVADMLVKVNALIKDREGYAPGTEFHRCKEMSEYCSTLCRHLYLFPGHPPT
The experiment in a line: In vitro caspase-2-catalyzed tau cleavage assay (Δtau314 production, IP/WB). The experiment is classed as biochemical. Conditions: for inhibition at 10 µM: read-out: inhibition of Casp2-catalyzed Δtau314 production (tau cleavage at D314). On the procedure:
DNA sequences encoding human caspase-2 p19 and p12 subunits were cloned as two separate open reading frames in the pCOLADuet-1 vector (Millipore Sigma, Burlington, MA). The DNA sequence encoding human microtubule-associated protein tau 0N4R isoform was cloned in the pET28a vector (Millipore Sigma). Expression of recombinant human caspase-2 and tau was induced using 150 μM isopropyl-β-D-thiogalactopyranoside (IPTG) (Promega, Madison, WI) in the BL21(DE3) E. coli strain (Millipore Sigma) at room temperature for 16 hours while shaking at 250 rpm. Cells were then harvested via centrifugation at 6,000 g, 4° C. for 15 minutes, followed by lysis via sonication. Proteins were purified using HisPur Ni-NTA resin (Thermo Fisher Scientific, Waltham, MA) followed by HiTrap Chelating HP columns (GE Healthcare Life Sciences, Piscataway, NJ). Proteins were stored in 1× phosphate-buffered saline (pH 7.4) at 10 mg/mL (determined using a BCA assay (Thermo Fisher Scientific)), −80° C. until further use.
Purified recombinant Casp2 (final concentration during pre-incubation: 67 μM) was pre-incubated with various concentrations of inhibitory compounds at 4° C. for 72 h. Pre-treated enzyme was then incubated with purified recombinant tau at a molar ratio of 1:1 in 37° C. water bath, 1× reaction buffer (25 mM 4-(2-hydroxyethyl)-1-piperazineethanesulfonic acid (HEPES), 0.1% (w/v) 3-[(3-cholamidopropyl)dimethylammonio]-1-propanesulfonate (CHAPS), 10 mM dithiothreitol (DTT), pH 7.5) for 7 h. The final volume of each reaction was 100 μL. At the end of the 7-h incubation, 0.1% (v/v) protease inhibitor cocktail (Millipore Sigma) was added to stop the reactions.
Immediately after the reaction was stopped, the 100 μL enzyme-product mixture was diluted in 400 μL IP buffer (50 mM Tris-HCl (pH 7.4) and 150 mM NaCl, containing 0.1 mM phenylmethylsulfonyl fluoride, 0.2 mM 1,10-phenanthroline monohydrate, and protease inhibitor cocktail (Millipore Sigma)), and then incubated with 10 μg of Δtau314-specific monoclonal antibody 4F3 and 50 μL of Protein G Sepharose 4 Fast Flow resin (GE Healthcare) at 4° C. for 14-16 h. Subsequent resin wash and protein elution were performed as described previously (Liu P, et al., Scientific Reportsm 2020, 10, 3869). WB was performed according to a previously published protocol (Liu P, et al., Acta Neuropathologica Communications, 2019; 7, 111).

The structures appear in SMILES notation. “Also recorded” adds a separate entry of the source. Like-named read-outs stand apart in the source and are kept apart here.

The IC50 is the concentration that inhibits the measured activity by half. A word on the inhibition: it is the share of the control response that was lost under treatment.

Consider `Cc1ccc2c(c1)CCN(C(=O)[C@@H](NC(=O)[C@H](CCCC(=O)O)NC(=O)C1Cc3ccccc3N1)C(C)C)[C@@H]2C(=O)N[C@H](C#N)CC(=O)O` (stereo partly drawn) [Compound 1, (8)-6-(((S)-1-((8)-1-(((S)-2-carboxy-1-cyanoethyl)carbamoyl)-6-methyl-3,4-dihydroisoquinolin-2(1H)-yl)-3-methyl-1-oxobutan-2-yl)amino)-5-((S)-indoline-2-carboxamido)-6-oxohexanoic acid], for which the IC50 amounted to 2020 ± 190 nM and the inhibition at 10 µM was determined as 96%.

As to `CC(=O)N[C@H](C(=O)N[C@@H](CC(=O)O)C(=O)N[C@H](C(=O)N1CCc2cc(C)ccc2[C@H]1C(=O)N[C@H](C=O)CC(=O)O)C(C)C)C(C)C` [Compound 30b, (S)-3-((S)-2-acetamido-3-methylbutanamido)-4-(((S)-1-((S)-1-(((S)-1-carboxy-3-oxopropan-2-yl)carbamoyl)-6-methyl-3,4-dihydroisoquinolin-2(1H)-yl)-3-methyl-1-oxobutan-2-yl)amino)-4-oxobutanoic acid, reference compound], the inhibition at 10 µM (compound at 10 μM, no-compound control = 100% Δtau314) came to 68%.

For `CC(=O)N[C@H](C(=O)NC(CC(=O)O)C(=O)N[C@H](C(=O)N1CCc2cc(C)ccc2C1C(=O)N[C@H](C=O)CC(=O)O)C(C)C)C(C)C` (stereo in doubt) [Compound 30a, (R)-3-((S)-2-acetamido-3-methylbutanamido)-4-(((S)-1-((S)-1-(((S)-1-carboxy-3-oxopropan-2-yl)carbamoyl)-6-methyl-3,4-dihydroisoquinolin-2(1H)-yl)-3-methyl-1-oxobutan-2-yl)amino)-4-oxobutanoic acid, reference compound], the “inhibition of Casp2-catalyzed Δtau314 production (tau cleavage at D314)” value (compound at 10 μM, no-compound control = 100% Δtau314, 10 µM) is on record as “no inhibition; also recorded: did not inhibit”.

The values are drawn from patent publication US20250188123A1, “PROTEASE INHIBITORS” (Regents of the University of Minnesota, priority 2022, published 2025).
